Data from PubChem BioAssay (NCI).
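Grown in 96-well plates, cells were treated for 48 hours with each compound at five concentrations. Insufficient inhibition: endpoint recorded as highest concentration tested. GI50 = concentration required for 50% inhibition of growth. TGI marks complete inhibition of growth.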

Tests used:
Experiment in all cases: growth of human tumour cells (NCI), 48 h
[1] = system: DMS 273 small cell lung
[2] = system: 786-0 renal
[3] = system: SNB-19 CNS
[4] = system: HCC-2998 colon
[5] = system: OVCAR-8 ovarian
[6] = system: OVCAR-5 ovarian
[7] = system: MOLT-4 leukemia
[8] = system: MCF7 breast
[9] = system: MDA-MB-231 breast

Structure (SMILES)	TGI [1] [µM]	TGI [2] [µM]	TGI [3] [µM]	TGI [4] [µM]	TGI [5] [µM]	TGI [6] [µM]	TGI [7] [µM]	GI50 [2] [µM]	GI50 [8] [µM]	TGI [8] [µM]	GI50 [3] [µM]	GI50 [4] [µM]	GI50 [5] [µM]	GI50 [6] [µM]	GI50 [9] [µM]	TGI [9] [µM]	GI50 [7] [µM]	GI50 [1] [µM]
CCOC(=O)C(CCCNC(=O)OC(C)(C)C)N(Cc1ccc(OC)cc1OC)C(=O)CC(=O)CP(=O)(OCC)OCC (stereo not drawn)	> 100	> 100	> 100	> 100	> 100	> 100	> 100											
C[P+]1(c2ccccc2)CCCCC1	> 100	> 100	> 100	> 100	> 100	> 100	> 100											
CCc1ccccc1NC(=O)CC1NC(=O)CS1 (stereo not drawn)	> 100	> 100	> 100	> 100	> 100	> 100	> 100											
Cc1ccc(NC(=O)/C(C#N)=C/c2ccccc2)c(C)c1	> 100	> 100	> 100	> 100	> 100	> 100	> 100											
N#CNC1=NC(N)C(c2nc3ccccc3[nH]2)=C(CCCC(=O)Nc2cccc([N+](=O)[O-])c2)N1 (stereo not drawn)	> 100	> 100	> 100	> 100	> 100	> 100	> 100											
O=[N+]([O-])/C=C/c1ccc(Cl)cc1Cl	29.7	42.2	32.4	29	67.7	46.3	45.7											
Cn1nc(-c2ccccc2)c(C(=O)/C=C/c2ccc(Cl)cc2)c(N2CCOCC2)c1=O	13.8	12.3	29.3		26.2		4.63											
CC(N)CC(=O)O (stereo not drawn)	> 5000	> 5000		> 5000		> 5000	> 5000											
COc1ccc(-c2[nH]c3ccccc3c2/C=C(\C#N)S(=O)(=O)c2ccccc2)cc1		> 38.3	> 100	5.99	> 26.6	> 100	8.39	0.844	0.398	> 51.6	0.844	1.11	1.29	1.84	0.58	> 60.8	0.666	
CC1CCC2(C)C(CC=C(C=O)C2(O)C=O)C12CO2 (stereo not drawn)	7.61	5.83	22.5	11.3	6.69	8.03	5.83											
Cc1cc(O)c2c3c(ccc2c1)C(=O)c1c(O)cccc1C3=O		> 100	> 100	> 100	> 100	> 100	> 39.1			> 100						> 100		
[Cl][Cu][Cl]		> 10	> 10	> 10	> 10	> 10	> 10	> 10	> 10	> 10	> 10	> 10	> 10	> 10	> 10	> 10	> 10	
O=C(CO)C1CC2C=CC1C2 (stereo not drawn)	> 100	> 100	> 100		> 100	> 100	> 100											
C=C1C=CC2(Br)OC3CC(C)(Cl)C(Br)CC13C2(C)C (stereo not drawn)	> 100	> 100	88.3	42.7	77.1	57.6	34.9											
Nc1nc2ccccc2c2c1S(=O)(=O)c1ccc(Cl)cc1C2=O		> 50	> 50	29.8	> 50	4.62	8.86	5.93	1.49	> 50	2.52	2.03	1.54	1.42	1.57	> 50	1.42	
CC(=O)N(O)c1ccc(/C=C/c2ccccc2)cc1		3.46	> 100	3.76	> 52.5	9.46	> 100	0.768	0.548	> 100	1.88	1.65	1.59	2.35	3.41	21.8	2.27	
c1ccc(CN2COc3c(ccc4c5c(ccc34)CN(Cc3ccccc3)CO5)C2)cc1		> 100	> 100	> 100	> 100	> 100	> 100			> 100						> 100		
CC(=O)CC(=O)CCC(=O)Nc1cccc(C(F)(F)F)c1	> 100	> 100	> 100	> 100	> 100	> 100	> 100											
Cc1nnc(N/N=C(/C(=O)C(C#N)c2ccc(Cl)cc2)C(C#N)c2ccc(Cl)cc2)n1N (stereo not drawn)	34	31.5	27.9	34.2	41	33.6	> 100											
COCCOCCOCCOCCOC(=O)OC[n+]1ccc(NC(=NCCCCCCOc2ccc(Cl)cc2)NC#N)cc1		22.9	18.3	20.5	20.8	22	19.5	10.3	0.873	17.4	0.199	0.564	< 0.01	3.98	5.19	23.7	1.95	
CC(=O)[CH-]C(C)=O.CC(=O)[CH-]C(C)=O.CC(=O)[CH-]C(C)=O.[Ga+3]	> 100	> 100	> 100	> 100	> 100	> 100		> 100			> 100	> 100	> 100	> 100				> 100
COc1ccc(/C=N\Nc2nc(SCC(C)C)nc(-c3ccc(OC)cc3)c2C#N)cc1		9.33	33.3	99.4	29.8	> 100	> 100	1.86	13.8	> 100	6.81	24.7	5.3	20.4	6.66	25	12.9	
CN(C)c1nc(N)c(C#N)c(C#N)c1C#N		> 10	> 10	> 10	> 10	> 10	> 10			> 10						> 10		
